Laboratory results as given in article PMC5476563, “Structure-Guided Design of C4-alkyl-1,4-dihydro-2H-pyrimido[4,5-d][1,3]oxazin-2-ones as Potent and Mutant-Selective Epidermal Growth Factor Receptor (EGFR) L858R/T790M Inhibitors” (Scientific Reports, 2017).
“And” between values parts separate entries of the source, which are not always exact repeats. Equal values may be shown once.

Legend:
[1] = system: H1975 cells (expressing EGFR^L858R/T790M); experiment: Sulforhodamine B (SRB) cellular antiproliferation assay, H1975; assay type: cell-based; settings: for IC50: Homo sapiens, NCI-H1975, SRB assay, 72 h, mean ± SD, read-out: Cellular Antiproliferative Activity (IC50, nM) H1975; for Cellular Selectivity A431:H1975: ratio IC50 A431 : H1975
Description: (§1) Having explored potent inhibition and obvious selectivity of EGFR kinases by introduction of alkyl groups to C4-position to the 1,4-dihydro-2H-pyrimido[4,5-d][1,3]oxazin-2-one ring, we subsequently evaluated their anti-proliferative activities in H1975 cells (expressing EGFR^L858R/T790M) and A431 cells (expressing EGFR^WT) in vitro by using the sulforhodamine B (SRB) colourimetric assay. The anti-proliferative activities of our designed compounds against H1975 and A431 cell lines range from 135 nM to more than 9 μM and from 554 nM to more than 7 μM, respectively (Fig. 5). Additionally, the selectivity at the cellular level is from 0.7 to 9.4-fold.
(§2) In vitro cellular antiproliferation activities of the designed compounds against H1975 and A431 cell lines were examined by using the well-established sulforhodamine B (SRB) colorimetric assay. The detailed experiment was performed according to the published literature. Briefly, H1975 and A431 cells were seeded in 96-well plates, and allowed to adhere overnight followed by treated with gradient concentrations of the test compounds for 72 h. […] The IC50 values were obtained by using the Logit method and reported as the mean ± SD from three independent determinations.

[2] = biological target: T1, EGFR^L858R/T790M (Homo sapiens, UniProt P00533, L858R/T790M); experiment: ELISA-based EGFR-TK enzymatic activity assay (dual mutant); assay type: biochemical; settings: for IC50: ELISA-based EGFR-TK assay, mean ± SD, at least three determinations, read-out: Enzyme Inhibitory Activity (IC50, nM) L858R/T790M; for Enzyme Selectivity WT:DM: ratio IC50 EGFR^WT : EGFR^L858R/T790M
T1 construct: Kinases domain of EGFR^L858R/T790M and EGFR^WT were expressed by using the Bac-to-Bac™ baculovirusexpression system; made in house
Procedure: (§3) The enzymatic activity assay was evaluated by using the well-established ELISA-based assay. […] The detailed experiment was performed according to the published literature.

[3] = system: A431 cells (expressing EGFR^WT); experiment: Sulforhodamine B (SRB) cellular antiproliferation assay, A431; assay type: cell-based; settings: Homo sapiens, A-431, 72 h, mean ± SD, read-out: Cellular Antiproliferative Activity (IC50, nM) A431
Description: as §1, §2

[4] = biological target: T2, EGFR^WT (Homo sapiens, UniProt P00533); experiment: ELISA-based EGFR-TK enzymatic activity assay (WT); assay type: biochemical; settings: mean ± SD, at least three determinations, read-out: Enzyme Inhibitory Activity (IC50, nM) WT
T2 construct: Kinases domain of EGFR^L858R/T790M and EGFR^WT were expressed by using the Bac-to-Bac™ baculovirusexpression system; made in house
Procedure: In vitro antiproliferation activities of the compounds were examined through using the sulforhodamine B (SRB) colourimetric assay.
as §3

[5] = biological target: T1, EGFR^L858R/T790M; set-up: method as in PMID 27396610; settings: previously reported; cited from earlier work
[6] = system: H1975 xenograft driven by EGFR^L858R/T790M; experiment: In vivo antitumor efficacy, H1975 NSCLC xenograft mouse model; set-up: species or system nude mice; settings: 14 days; for tumor growth inhibition (TGI): 50 mg/kg orally once per day, final day vs vehicle, P < 0.05
Procedure: H1975 cells were implanted as described in Methods. […] H1975 xenograft mouse model tumor volumes (A) and body weights (B) were recorded every two or three days. All values represent mean ± SEM.
All experimental procedures involving animals were performed in accordance with the ethical guidelines from Shanghai Laboratory Animal Public Service Center and Animal Ethics Committee of the East China University of Science and Technology. The whole experimental protocol was also approved by the Animal Ethics Committee of the East China University of Science and Technology. All 4–6 weeks old nude mice were purchased from Shanghai Slac Laboratory Animal Co. Ltd (The license of experimental animal: SCXK (shanghai) 2012–0002). The mice were maintained under the 12 hour light/dark cycles condition in the specific pathogen free (SPF) cleanroom with fresh air (more than 50%), appropriate temperature (22–26 °C) and humidness (40–60%). All materials and containers were disinfected and sterilized before use. Nude mice, aged 4–6 weeks, were inoculated subcutaneously into the right flank with H1975 NSCLC cells (approximately 2 × 10^6 cells/mouse). When the tumor size reached a volume of ~200−400 mm^3, animals were randomly assigned into control and treated groups (n = 3/group). […] The sizes of tumor volume (V) were measured every two or three days by using vernier caliper, and were calculated with the formula V = (L × W^2)/2, where L and W stands for length and width, respectively.

[7] = system: phosphorylation of EGFR^L858R/T790M, AKT and ERK in H1975 cells; experiment: Western blot analysis of EGFR and downstream signaling phosphorylation, H1975; assay type: cell-based; settings: 2 h incubation, EGF 50 ng/mL 10 min
Procedure: (§4) Cells were starved in serum-free medium for 24 h before incubation of indicated concentrations of compounds 20a and 8 (positive control) and harvested after stimulation by EGF (50 ng/mL) for 10 min. Phosphorylation of EGFR and downstream signaling substrates was examined by Western Blot analysis. Blot source data is provided in Supplementary Fig. S1.
(§5) Western blot analysis was performed with standard procedures. Briefly, H1975 and A431 cell lines were seeded in six-well plates, starved in serum-free medium for 24 h, followed by incubation for 2 h in the presence of different concentrations of compounds 20a and 8 (as positive control). Cells were stimulated by the addition of EGF (50 ng/mL, R&D Systems, US) for 10 min, then washed with PBS and lysed in SDS lysis buffer. Antibodies against p-EGFR (Y1068; #3777 S), EGFR (#4267 S), p-ERK (T202/Y204; #4370 L), ERK (#4695 S), p-AKT (Ser473), AKT and Tubulin were used (Cell Signaling Technologies, Cambridge, MA).

[8] = system: activation of EGFR^WT in A431 cells; experiment: Western blot analysis of EGFR phosphorylation, A431; assay type: cell-based
Procedure: as §4, §5

T2 sequence (P00533 712-979 limits assumed): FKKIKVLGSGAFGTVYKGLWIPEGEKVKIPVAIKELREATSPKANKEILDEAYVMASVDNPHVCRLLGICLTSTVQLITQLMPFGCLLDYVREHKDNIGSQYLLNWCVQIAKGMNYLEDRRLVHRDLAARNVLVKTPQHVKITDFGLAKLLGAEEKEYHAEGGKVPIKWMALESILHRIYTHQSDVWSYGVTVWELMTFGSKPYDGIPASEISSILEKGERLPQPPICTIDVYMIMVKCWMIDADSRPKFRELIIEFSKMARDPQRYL
T1 sequence (P00533 712-979 T790M/L858R limits assumed): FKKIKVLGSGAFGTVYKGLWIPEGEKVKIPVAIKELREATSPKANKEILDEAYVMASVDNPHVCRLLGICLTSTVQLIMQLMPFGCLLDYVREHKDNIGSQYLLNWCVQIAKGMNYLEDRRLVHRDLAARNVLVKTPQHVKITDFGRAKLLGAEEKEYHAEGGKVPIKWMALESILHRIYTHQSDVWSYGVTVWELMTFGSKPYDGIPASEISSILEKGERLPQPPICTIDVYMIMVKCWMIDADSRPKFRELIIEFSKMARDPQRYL

SMILES | IC50 [1] [nM] | IC50 [2] [nM] | Enzyme Selectivity WT:DM [2] | IC50 [3] [nM] | IC50 [4] [nM] | Cellular Selectivity A431:H1975 [1] [fold] | selectivity EGFR^L858R/T790M kinase over EGFR^WT kinase [5] [fold] | tumor growth inhibition (TGI) [6] [%] | concentration inhibiting ERK phosphorylation [7] [nM] | concentration inhibiting phosphorylation of AKT [7] [nM] | concentration inhibiting phosphorylation of EGFR^L858R/T790M [7] [nM] | effect on body weight / tolerability ([6]; 50 mg/kg/day orally) | concentration at which obvious effect on EGFR activation appears [8] [µM]
C=CC(=O)Nc1cccc(N2C(=O)OCc3cnc(Nc4ccc(N5CCN(C)CC5)cc4OC)nc32)c1 [16e, N-(3-(7-((2-Methoxy-4-(4-methylpiperazin-1-yl)phenyl)amino)-2-oxo-2H-pyrimido[4,5-d][1,3]oxazin-1(4H)-yl)phenyl)acrylamide] | 222 ± 84 | 7.3 | 3.3 fold | 1070 ± 241 | 24 | 4.8 |  |  |  |  |  |  | 
C=CC(=O)Nc1cccc(-n2c(=O)c(=O)n(C)c3cnc(Nc4ccc(N5CCN(C)CC5)cc4OC)nc32)c1 [compound 9] |  |  |  |  |  |  | 101 |  |  |  |  |  | 
C=CC(=O)Nc1cccc(N2C(=O)OC(CC)(CC)c3cnc(Nc4ccc(N5CCN(C)CC5)cc4OC)nc32)c1 [20b, N-(3-(4,4-Diethyl-7-((2-methoxy-4-(4-methylpiperazin-1-yl)phenyl)amino)-2-oxo-2H-pyrimido[4,5-d][1,3]oxazin-1(4H)-yl)phenyl)acrylamide] | 3710 ± 1370 | > 1000 |  | 7040 ± 455 | > 1000 | 1.9 |  |  |  |  |  |  | 
C=CC(=O)Nc1cccc(Nc2nc(Nc3ccc(N4CCN(C(C)=O)CC4)cc3OC)ncc2C(F)(F)F)c1 [compound 7, CO-1686, reference compound] | 73 ± 21 |  |  | 1120 ± 117 |  |  |  | 72 |  |  |  |  | 
C=CC(=O)Nc1cccc(N2C(=O)OC(CCC)(CCC)c3cnc(Nc4ccc(N5CCN(C)CC5)cc4OC)nc32)c1 [20c, N-(3-(7-((2-Methoxy-4-(4-methylpiperazin-1-yl)phenyl)amino)-2-oxo-4,4-dipropyl-2H-pyrimido[4,5-d][1,3]oxazin-1(4H)-yl)phenyl)acrylamide] | 9390 ± 1740 | > 1000 |  | 6400 ± 349 | > 1000 | 0.7 |  |  |  |  |  |  | 
C=CC(=O)Nc1cccc(N2C(=O)OC(C)(C)c3cnc(Nc4ccc(N5CCN(C)CC5)cc4OC)nc32)c1 [20a, N-(3-(7-((2-Methoxy-4-(4-methylpiperazin-1-yl)phenyl)amino)-4,4-dimethyl-2-oxo-2H-pyrimido[4,5-d][1,3]oxazin-1(4H)-yl)phenyl)acrylamide] | 135 | 4.5 | ~35 fold | 1270 | 156 | 9.4 |  | 71 | 100 | 10 | 10 | no obvious effect on the body weight | 1

More lines, in order of falling IC50 [1], values ahead:

IC50 [1] [nM] | IC50 [2] [nM] | Enzyme Selectivity WT:DM [2] | IC50 [3] [nM] | IC50 [4] [nM] | SMILES | Cellular Selectivity A431:H1975 [1] [fold] | selectivity EGFR^L858R/T790M kinase over EGFR^WT kinase [5] [fold] | tumor growth inhibition (TGI) [6] [%] | concentration inhibiting ERK phosphorylation [7] [nM] | concentration inhibiting phosphorylation of AKT [7] [nM] | concentration inhibiting phosphorylation of EGFR^L858R/T790M [7] [nM] | effect on body weight / tolerability ([6]; 50 mg/kg/day orally) | concentration at which obvious effect on EGFR activation appears [8] [µM]
1340 ± 791 | 158 ± 27 | 1.4 fold | 2110 ± 877 | 224 ± 41 | C=CC(=O)Nc1cccc(N2C(=O)OC(CCC)c3cnc(Nc4ccc(N5CCN(C)CC5)cc4OC)nc32)c1 (centres unmarked) [16c, N-(3-(7-((2-Methoxy-4-(4-methylpiperazin-1-yl)phenyl)amino)-2-oxo-4-propyl-2H-pyrimido[4,5-d][1,3]oxazin-1(4H)-yl)phenyl)acrylamide] | 1.6 |  |  |  |  |  |  | 
1110 ± 748 | 217 ± 86 | 0.8 fold | 1160 ± 279 | 183 ± 47 | C=CC(=O)Nc1cccc(N2C(=O)OC(C(C)C)c3cnc(Nc4ccc(N5CCN(C)CC5)cc4OC)nc32)c1 (centres unmarked) [16d, N-(3-(7-((2-Methoxy-4-(4-methylpiperazin-1-yl)phenyl)amino)-2-oxo-4-isopropyl-2H-pyrimido[4,5-d][1,3]oxazin-1(4H)-yl)phenyl)acrylamide] | 1.0 |  |  |  |  |  |  | 
400 ± 257 | 5.4 | 4–7 fold and 7 fold | 821 ± 162 | 38 | C=CC(=O)Nc1cccc(N2C(=O)OC(C)c3cnc(Nc4ccc(N5CCN(C)CC5)cc4OC)nc32)c1 (centres unmarked) [16a, N-(3-(7-((2-Methoxy-4-(4-methylpiperazin-1-yl)phenyl)amino)-4-methyl-2-oxo-2H-pyrimido[4,5-d][1,3]oxazin-1(4H)-yl)phenyl)acrylamide] | 2.1 |  |  |  |  |  |  | 
200 ± 83 | 6.1 | 4–7 fold and 3.8 fold | 554 ± 285 | 23 ± 10 | C=CC(=O)Nc1cccc(N2C(=O)OC(CC)c3cnc(Nc4ccc(N5CCN(C)CC5)cc4OC)nc32)c1 (centres unmarked) [16b, N-(3-(4-Ethyl-7-((2-methoxy-4-(4-methylpiperazin-1-yl)phenyl)amino)-2-oxo-2H-pyrimido[4,5-d][1,3]oxazin-1(4H)-yl)phenyl)acrylamide] | 2.8 |  |  |  |  |  |  | 
